Test results reported in ChEMBL document CHEMBL1201862, “PubChem BioAssay data set” (2004).
Calls of active or inactive are those of the source. Unless noted, the rule behind the calls is not given here.

What was measured:
[1] = inhibitors of Bluetongue virus cytopathic effect, confirmation, arbovirus, BSR cells (AID 1250); type: functional;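 also: protection from viral cytopathic effect measured as cell viability by ATP luminescence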
Mucolipin-3 = Mucolipin-3 (Homo sapiens, UniProt Q8TDD5); assay: Dose response cell-based high-throughput screening assay for agonists of the transient receptor potential channel ML3 (TRPML3). [Related pubchem assays: 1526, 1424, 1448 ]; type: functional
Ion channel NompC = Ion channel NompC (Danio rerio, UniProt Q7T1G6); assay: Fluorescence counterscreen assay for TRPML3 agonists: dose response cell-based high-throughput screening assay to identify agonists of the transient receptor potential channel N1 (TRPN1). [Related pubchem assays: 1526, 1424, 1448 ]; type: functional
Vasopressin V1a receptor = Vasopressin V1a receptor (Homo sapiens, UniProt P37288); assay: Fluorescence-based cell-based high throughput dose response screening assay for agonists of the vasopressin 1 receptor (V1R).; type: functional
Oxytocin receptor = Oxytocin receptor (Homo sapiens, UniProt P30559); assay: Counterscreen for vasopressin 1 receptor (V1R) agonists: Fluorescence-based cell-based high throughput dose response assay for agonists of the Oxytocin Receptor (OXTR). [Related pubchem assays: 2435 (Primary screen (OXTR agonists in singlicate)), 434964 (Confirmation screen (V1R agonists in triplicate)), 434969 (Counterscreen (OXTR agonists in …; type: functional
[2] = biological target: Inward rectifier potassium channel 2 (Mus musculus, UniProt P35561); assay: Manual electrophysiological patch clamp assay for SAR compounds that inhibit/block inward-rectifying potassium ion channel Kir2.1. [Related pubchem assays: 1843 (Summary assay for Kir2.1 inhibitor assays.), 1672 (Primary HTS of 305616 compounds where 2592 were identified as active.)]; type: functional
[3] = biological target: Induced myeloid leukemia cell differentiation protein Mcl-1 (Homo sapiens, UniProt Q07820); assay: MCL1-BIM BH3 interaction inhibitors, dose response, biochemical, fluorescence polarization, BIM-BH3 peptide, 1536-well (AID 2217)
Bcl-2-like protein 1 = Bcl-2-like protein 1 (Homo sapiens, UniProt Q07817); assay: BCL-XL inhibitors, dose response, selectivity assay for MCL1 inhibitor project, biochemical, fluorescence polarization, 1536-well (AID 2218)
[4] = Luminescence-based counterscreen assay for KLF5 inhibitors: dose response cell-based high throughput screening assay to identify cytotoxic compounds using the IEC-6 intestinal epithelial cell line. [Related pubchem assays: 1700 (Primary screen.), 1834 (Confirmation screen.), 1858 (Summary AID.), 1905 (Counterscreen.)]; type: functional

Chain of Vasopressin V1a receptor (P37288 whole entry): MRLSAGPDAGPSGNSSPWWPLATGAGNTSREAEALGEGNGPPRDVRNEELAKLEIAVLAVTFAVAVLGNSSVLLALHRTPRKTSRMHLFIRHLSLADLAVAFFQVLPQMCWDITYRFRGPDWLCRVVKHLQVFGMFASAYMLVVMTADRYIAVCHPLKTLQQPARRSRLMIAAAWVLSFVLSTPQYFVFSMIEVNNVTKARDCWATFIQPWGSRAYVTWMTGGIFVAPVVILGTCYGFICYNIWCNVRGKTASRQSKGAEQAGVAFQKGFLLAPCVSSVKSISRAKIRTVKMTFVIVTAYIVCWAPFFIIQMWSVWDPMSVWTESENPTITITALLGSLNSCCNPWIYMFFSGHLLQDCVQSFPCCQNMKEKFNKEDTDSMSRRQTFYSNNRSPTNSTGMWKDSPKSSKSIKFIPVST
Chain of Induced myeloid leukemia cell differentiation protein Mcl-1 (Q07820 whole entry): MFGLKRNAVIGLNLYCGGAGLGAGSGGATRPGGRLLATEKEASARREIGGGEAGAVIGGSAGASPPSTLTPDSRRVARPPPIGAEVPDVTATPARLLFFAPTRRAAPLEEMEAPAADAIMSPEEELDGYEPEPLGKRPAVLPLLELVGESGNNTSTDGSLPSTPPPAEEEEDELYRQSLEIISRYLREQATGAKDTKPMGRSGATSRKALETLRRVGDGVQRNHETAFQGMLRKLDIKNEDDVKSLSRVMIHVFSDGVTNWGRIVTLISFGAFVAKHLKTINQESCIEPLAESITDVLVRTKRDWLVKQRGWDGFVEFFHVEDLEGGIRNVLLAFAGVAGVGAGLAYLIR
Chain of Bcl-2-like protein 1 (Q07817 whole entry): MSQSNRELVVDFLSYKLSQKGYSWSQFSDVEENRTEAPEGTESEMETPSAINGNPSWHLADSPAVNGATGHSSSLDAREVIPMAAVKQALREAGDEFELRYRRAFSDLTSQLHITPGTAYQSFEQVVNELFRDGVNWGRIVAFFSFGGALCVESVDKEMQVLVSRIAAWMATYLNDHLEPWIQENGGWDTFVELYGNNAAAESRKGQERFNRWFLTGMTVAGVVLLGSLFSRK
Chain of Oxytocin receptor (P30559 whole entry): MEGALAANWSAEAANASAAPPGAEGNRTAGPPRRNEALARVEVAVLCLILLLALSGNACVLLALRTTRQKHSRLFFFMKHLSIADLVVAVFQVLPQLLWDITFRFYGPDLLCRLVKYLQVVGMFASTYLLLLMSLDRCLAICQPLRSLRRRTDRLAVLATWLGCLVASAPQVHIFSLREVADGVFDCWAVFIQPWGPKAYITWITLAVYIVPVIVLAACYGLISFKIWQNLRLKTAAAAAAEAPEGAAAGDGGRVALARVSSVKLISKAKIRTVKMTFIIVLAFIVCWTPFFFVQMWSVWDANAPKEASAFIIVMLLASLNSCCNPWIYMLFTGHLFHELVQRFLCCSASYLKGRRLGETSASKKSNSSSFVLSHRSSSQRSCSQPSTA
Chain of Ion channel NompC (Q7T1G6 whole entry): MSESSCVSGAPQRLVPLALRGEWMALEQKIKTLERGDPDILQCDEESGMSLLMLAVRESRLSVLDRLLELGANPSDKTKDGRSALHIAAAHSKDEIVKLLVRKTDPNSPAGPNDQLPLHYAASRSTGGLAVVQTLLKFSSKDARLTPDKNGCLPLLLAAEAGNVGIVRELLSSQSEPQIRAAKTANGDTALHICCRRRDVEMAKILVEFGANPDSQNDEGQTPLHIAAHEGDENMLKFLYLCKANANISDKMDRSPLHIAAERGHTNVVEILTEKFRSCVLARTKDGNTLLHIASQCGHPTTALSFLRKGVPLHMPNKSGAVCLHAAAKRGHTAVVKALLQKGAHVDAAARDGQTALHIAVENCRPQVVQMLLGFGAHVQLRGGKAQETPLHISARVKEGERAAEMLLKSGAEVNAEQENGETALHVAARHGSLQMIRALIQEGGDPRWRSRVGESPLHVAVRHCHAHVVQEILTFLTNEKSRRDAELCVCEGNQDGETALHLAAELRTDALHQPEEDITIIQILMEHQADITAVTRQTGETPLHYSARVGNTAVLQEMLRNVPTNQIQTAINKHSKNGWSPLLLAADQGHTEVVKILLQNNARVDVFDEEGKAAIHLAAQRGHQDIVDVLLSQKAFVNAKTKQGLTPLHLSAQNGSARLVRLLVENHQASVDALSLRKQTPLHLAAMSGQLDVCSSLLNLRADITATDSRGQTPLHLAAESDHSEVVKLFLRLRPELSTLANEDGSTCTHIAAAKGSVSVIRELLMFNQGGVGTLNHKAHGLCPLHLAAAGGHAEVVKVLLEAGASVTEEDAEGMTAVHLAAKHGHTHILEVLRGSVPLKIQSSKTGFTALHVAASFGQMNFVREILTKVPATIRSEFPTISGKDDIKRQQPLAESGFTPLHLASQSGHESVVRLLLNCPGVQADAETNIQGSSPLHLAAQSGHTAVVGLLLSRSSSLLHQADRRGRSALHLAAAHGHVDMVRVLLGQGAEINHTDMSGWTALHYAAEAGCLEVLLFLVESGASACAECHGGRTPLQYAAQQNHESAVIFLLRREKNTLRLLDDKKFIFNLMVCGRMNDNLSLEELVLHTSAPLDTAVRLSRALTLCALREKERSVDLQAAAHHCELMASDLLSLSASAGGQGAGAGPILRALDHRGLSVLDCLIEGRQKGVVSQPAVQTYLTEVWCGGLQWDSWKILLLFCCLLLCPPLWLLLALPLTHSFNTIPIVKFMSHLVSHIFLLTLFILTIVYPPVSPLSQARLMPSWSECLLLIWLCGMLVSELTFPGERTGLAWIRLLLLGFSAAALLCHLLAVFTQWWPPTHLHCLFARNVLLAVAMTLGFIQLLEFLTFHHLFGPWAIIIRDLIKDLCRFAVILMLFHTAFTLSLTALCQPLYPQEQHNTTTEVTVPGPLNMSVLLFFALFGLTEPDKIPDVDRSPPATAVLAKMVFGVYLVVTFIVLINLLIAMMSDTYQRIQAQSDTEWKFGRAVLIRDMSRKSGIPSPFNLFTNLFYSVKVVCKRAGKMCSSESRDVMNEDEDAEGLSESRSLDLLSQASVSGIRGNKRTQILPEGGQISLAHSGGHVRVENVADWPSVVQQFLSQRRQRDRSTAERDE
Chain of Mucolipin-3 (Q8TDD5 whole entry): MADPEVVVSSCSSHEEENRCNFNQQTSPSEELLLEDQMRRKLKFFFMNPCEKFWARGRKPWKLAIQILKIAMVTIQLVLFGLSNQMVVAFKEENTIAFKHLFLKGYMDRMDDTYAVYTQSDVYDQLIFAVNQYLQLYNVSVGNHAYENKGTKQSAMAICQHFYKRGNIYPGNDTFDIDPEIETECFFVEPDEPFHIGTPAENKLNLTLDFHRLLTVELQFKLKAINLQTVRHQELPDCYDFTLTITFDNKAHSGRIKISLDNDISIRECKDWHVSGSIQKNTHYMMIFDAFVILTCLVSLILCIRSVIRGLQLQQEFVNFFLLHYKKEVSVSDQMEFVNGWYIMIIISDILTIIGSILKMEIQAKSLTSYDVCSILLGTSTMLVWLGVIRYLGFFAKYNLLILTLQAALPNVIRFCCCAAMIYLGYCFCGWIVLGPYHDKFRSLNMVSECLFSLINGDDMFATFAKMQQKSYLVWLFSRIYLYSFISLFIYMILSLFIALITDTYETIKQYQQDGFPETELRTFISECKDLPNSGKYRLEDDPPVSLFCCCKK
Chain of Inward rectifier potassium channel 2 (P35561 whole entry): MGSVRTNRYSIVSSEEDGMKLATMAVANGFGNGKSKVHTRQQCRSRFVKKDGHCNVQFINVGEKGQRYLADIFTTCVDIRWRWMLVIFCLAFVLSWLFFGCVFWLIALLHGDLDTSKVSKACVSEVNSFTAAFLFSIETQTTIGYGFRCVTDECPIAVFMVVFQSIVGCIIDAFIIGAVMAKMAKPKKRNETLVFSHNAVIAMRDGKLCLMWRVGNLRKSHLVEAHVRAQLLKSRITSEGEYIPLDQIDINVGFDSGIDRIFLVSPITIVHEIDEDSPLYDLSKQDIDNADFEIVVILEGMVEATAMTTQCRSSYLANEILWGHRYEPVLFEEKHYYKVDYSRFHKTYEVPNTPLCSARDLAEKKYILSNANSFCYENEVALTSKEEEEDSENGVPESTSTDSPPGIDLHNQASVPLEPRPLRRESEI

Compound: CCNC(=O)NC(=O)C(C)Sc1nc2cc(C(=O)OC)ccc2c(=O)n1-c1ccccc1 (centres undefined)
- IC50 [1]: 28.9 µM (active)

Compound: CCC(C(=O)Nc1cc(C)nn1-c1nc(C)cc(C)n1)c1ccccc1 (centres undefined)
- EC50 (Mucolipin-3): > 29.9 µM (not active)
- EC50 (Ion channel NompC): > 29.9 µM (not active)

Compound: CC(NC(=O)Nc1ccc(Cl)c(Cl)c1)C(c1ccccc1)N1CCOCC1 (centres undefined)
- EC50 (Vasopressin V1a receptor): 6.23 µM (active)
- EC50 (Oxytocin receptor): > 29.9 µM (not active)

Compound: COc1ccc(CNCc2ccc(C(C)(C)C)cc2)cc1
- IC50 [2]: 1.27 µM (active)

Compound: CCOC(=O)C[C@H]1c2ccc(C(F)(F)F)cc2S(=O)(=O)N1c1cccc(OC)c1
- IC50 [3]: > 109 µM (not active)
- IC50 (Bcl-2-like protein 1): > 109 µM (not active)

Compound: O=C(N/N=C/c1cccc(Oc2ccccc2)c1)c1ccccc1F
- IC50 [4]: 18.7 µM (not active)
